Counter-ions that a name gives are not always drawn.
Tests used:
Assay type in all cases: biochemical
[1] = molecular target: T1, human JAK1 (a.a. 837-1142) (Homo sapiens, UniProt P23458); test: In vitro JAK kinase assay (HTRF, phosphorylation of a biotinylated peptide), JAK1; conditions: Table B1; read-out: JAK1 IC50
T1 construct: human JAK1 (a.a. 837-1142); His tag (N); made in house; host or cells: insect cells (baculovirus)
In short: (§1)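 Kinase activity was measured as phosphorylation of a biotinylated peptide, with ATP at 90 μM for JAK1, 30 μM for JAK2 and 3 μM for JAK3. Reactions ran 1 hr at room temperature, were stopped with EDTA plus SA-APC and Eu-Py20, and were read by HTRF after 40 minutes of antibody binding.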

[2] = molecular target: T2, human JAK2 (a.a. 828-1132) (Homo sapiens, UniProt O60674); test: In vitro JAK kinase assay (HTRF, phosphorylation of a biotinylated peptide), JAK2; conditions: Table B1
T2 construct: JAK2 (a.a. 828-1132); His tag (N); made in house; host or cells: insect cells (baculovirus)
T2 sequence (O60674 828-1132): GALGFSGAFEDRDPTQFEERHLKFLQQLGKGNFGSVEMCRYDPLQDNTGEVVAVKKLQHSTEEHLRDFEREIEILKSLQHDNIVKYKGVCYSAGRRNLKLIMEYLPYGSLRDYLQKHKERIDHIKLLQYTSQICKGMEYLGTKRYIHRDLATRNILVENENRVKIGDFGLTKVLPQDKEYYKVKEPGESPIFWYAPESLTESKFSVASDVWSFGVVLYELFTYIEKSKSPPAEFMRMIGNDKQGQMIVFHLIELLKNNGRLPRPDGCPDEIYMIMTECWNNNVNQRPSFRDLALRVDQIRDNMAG
In short: as §1

[3] = molecular target: T3, human JAK3 (a.a. 781-1124) (Homo sapiens, UniProt P52333); test: In vitro JAK kinase assay (HTRF, phosphorylation of a biotinylated peptide), JAK3; conditions: Table B1
T3 construct: JAK3 (a.a. 781-1124); His tag (N); made in house; host or cells: insect cells (baculovirus)
T3 sequence (P52333 781-1124): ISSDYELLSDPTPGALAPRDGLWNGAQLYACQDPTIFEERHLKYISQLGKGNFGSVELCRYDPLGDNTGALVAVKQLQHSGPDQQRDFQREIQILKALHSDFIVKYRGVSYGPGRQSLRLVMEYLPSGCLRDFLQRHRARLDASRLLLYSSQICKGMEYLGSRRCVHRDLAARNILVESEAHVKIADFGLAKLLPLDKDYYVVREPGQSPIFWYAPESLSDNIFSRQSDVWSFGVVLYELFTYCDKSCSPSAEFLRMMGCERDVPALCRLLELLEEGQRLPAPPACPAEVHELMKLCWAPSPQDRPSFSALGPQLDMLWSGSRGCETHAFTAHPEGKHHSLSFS
In short: as §1

TYK2 = TYK2 (Homo sapiens, UniProt P29597); test: TYK2 kinase inhibition (Table A1); conditions: Table B1
Chain of TYK2 (P29597 whole entry): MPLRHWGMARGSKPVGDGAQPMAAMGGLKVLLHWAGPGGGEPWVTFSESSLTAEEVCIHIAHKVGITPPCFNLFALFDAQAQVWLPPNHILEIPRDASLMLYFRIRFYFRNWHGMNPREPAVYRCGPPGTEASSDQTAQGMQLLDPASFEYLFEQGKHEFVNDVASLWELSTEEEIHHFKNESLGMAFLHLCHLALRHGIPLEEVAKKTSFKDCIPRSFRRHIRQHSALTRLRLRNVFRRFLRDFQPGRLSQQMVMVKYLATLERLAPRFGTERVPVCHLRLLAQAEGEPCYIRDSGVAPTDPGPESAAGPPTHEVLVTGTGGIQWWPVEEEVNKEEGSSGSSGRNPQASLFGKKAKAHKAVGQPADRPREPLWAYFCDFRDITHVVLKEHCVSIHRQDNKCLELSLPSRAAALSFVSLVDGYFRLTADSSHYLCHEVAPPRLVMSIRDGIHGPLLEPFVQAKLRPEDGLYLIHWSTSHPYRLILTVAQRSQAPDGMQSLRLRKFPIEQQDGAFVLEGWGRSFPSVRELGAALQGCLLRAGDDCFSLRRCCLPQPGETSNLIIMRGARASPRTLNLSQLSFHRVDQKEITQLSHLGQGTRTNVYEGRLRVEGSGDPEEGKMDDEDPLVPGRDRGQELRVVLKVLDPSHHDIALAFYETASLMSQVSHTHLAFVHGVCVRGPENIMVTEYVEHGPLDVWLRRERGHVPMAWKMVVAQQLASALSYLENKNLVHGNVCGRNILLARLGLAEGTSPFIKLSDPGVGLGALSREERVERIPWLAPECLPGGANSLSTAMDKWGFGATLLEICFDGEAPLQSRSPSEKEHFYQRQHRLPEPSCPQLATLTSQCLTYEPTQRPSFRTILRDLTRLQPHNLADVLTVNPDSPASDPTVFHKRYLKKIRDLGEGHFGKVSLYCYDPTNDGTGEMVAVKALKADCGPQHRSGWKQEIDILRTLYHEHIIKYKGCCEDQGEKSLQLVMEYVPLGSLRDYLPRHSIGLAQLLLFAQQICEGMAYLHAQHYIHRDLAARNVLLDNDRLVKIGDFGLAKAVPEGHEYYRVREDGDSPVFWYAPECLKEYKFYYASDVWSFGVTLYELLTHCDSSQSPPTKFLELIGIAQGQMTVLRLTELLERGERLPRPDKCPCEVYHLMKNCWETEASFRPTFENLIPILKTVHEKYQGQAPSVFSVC

[4] = molecular target: T4, Recombinant Human Anaplastic Lymphoma Kinase (Homo sapiens, UniProt Q9UM73); test: ALK HTRF kinase assay; conditions: percentage inhibition of the example compound at a concentration of 500 nM or 1 mM (not specified which)
T4 construct: purchased Invitrogen, Carlsbad, Calif
T4 sequence (Q9UM73 19-1620): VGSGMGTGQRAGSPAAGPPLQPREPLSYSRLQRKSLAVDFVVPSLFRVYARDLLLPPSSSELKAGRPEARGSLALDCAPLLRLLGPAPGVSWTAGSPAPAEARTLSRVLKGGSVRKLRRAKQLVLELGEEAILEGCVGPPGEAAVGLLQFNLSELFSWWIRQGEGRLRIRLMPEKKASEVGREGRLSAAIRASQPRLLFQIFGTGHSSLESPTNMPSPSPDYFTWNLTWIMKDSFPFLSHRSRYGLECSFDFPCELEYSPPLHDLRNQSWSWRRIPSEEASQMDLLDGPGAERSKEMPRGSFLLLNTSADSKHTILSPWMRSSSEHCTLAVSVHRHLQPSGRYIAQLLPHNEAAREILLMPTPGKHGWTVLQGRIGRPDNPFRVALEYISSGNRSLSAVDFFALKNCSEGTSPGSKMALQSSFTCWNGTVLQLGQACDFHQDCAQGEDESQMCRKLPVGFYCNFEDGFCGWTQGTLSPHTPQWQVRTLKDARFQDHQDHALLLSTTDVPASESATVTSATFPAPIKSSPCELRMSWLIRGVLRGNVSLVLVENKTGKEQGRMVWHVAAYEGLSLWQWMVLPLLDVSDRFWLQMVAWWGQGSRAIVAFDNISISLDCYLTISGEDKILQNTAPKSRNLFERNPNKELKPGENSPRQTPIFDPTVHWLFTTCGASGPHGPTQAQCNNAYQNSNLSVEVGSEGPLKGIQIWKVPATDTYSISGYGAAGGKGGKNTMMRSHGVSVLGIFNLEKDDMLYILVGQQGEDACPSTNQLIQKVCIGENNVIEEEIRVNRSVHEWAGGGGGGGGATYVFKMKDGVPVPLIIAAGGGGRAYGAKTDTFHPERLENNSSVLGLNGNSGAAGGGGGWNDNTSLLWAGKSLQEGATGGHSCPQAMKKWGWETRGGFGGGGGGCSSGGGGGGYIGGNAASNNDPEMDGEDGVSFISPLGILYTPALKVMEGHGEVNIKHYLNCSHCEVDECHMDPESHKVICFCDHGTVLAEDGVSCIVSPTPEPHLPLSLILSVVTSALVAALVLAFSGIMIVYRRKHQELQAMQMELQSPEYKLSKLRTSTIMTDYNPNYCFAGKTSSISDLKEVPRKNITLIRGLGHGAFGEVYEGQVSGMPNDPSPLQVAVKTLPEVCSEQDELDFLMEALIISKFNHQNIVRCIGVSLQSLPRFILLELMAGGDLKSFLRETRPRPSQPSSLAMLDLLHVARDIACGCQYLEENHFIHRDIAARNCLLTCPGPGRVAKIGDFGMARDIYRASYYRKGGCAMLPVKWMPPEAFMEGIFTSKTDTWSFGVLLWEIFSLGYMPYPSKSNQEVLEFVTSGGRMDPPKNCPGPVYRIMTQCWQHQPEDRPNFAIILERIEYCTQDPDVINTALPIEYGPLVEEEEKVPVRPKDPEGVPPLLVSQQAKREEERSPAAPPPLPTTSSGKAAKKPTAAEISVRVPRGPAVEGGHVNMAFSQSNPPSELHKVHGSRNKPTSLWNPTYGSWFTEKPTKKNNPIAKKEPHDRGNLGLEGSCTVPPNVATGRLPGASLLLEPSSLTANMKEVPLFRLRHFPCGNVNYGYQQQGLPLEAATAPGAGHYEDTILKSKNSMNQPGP
In short: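 Compounds were incubated with recombinant human ALK and a biotin-tagged peptide substrate. Product was captured with streptavidin-APC and probed with a europium anti-phosphotyrosine antibody, and plates were read for time-resolved fluorescence. Dose-response data were fitted to derive IC50.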

T1 sequence (P23458 849-1154): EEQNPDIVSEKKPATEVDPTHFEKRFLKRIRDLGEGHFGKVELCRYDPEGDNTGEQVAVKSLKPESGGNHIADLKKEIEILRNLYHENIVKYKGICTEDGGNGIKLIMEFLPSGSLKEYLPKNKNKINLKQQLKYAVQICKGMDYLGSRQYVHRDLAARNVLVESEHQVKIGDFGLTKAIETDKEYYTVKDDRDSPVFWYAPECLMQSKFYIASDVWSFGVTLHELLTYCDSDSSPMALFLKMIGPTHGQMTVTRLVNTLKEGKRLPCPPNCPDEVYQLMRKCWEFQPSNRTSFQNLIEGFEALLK

Structure (SMILES)	IC50 [1]	IC50 [2]	IC50 [3]	IC50 (TYK2)	ALK % of inhibition at a concentration of 500 nM or 1 mM [4]
CN(Cc1ccc2cc1CCc1cncc(c1)Nc1ncc(Cl)c(n1)N2)C(=O)C1CCN(C(=O)c2ccno2)CC1 [Example B336, N-{[6-Chloro-2,4,8,18,22-pentaazatetracyclo[14.3.1.1(3,7).1(9,13)]docosa-1(20),3(22),4,6,9(21),10,12,16,18-nonaen-12-yl]methyl}-1-(isoxazol-5-ylcarbonyl)-N-methylpiperidine-4-carboxamide bis(trifluoroacetate)]	52 nM	140 nM	> 200 nM	> 200 nM	11%
CN(Cc1ccc2cc1CCc1cncc(c1)Nc1ncc(Cl)c(n1)N2)C(=O)C1CCN(C(=O)Nc2ccccc2)CC1 [Example B337, N(4)-{[6-chloro-2,4,8,18,22-pentaazatetracyclo[14.3.1.1(3,7).1(9,13)]docosa-1(20),3(22),4,6,9(21),10,12,16,18-nonaen-12-yl]methyl}-N(4)-methyl-N(1)-phenylpiperidine-1,4-dicarboxamide bis(trifluoroacetate)]	41 nM	171 nM	> 200 nM	> 200 nM	21%
CN(Cc1ccc2cc1CCc1cncc(c1)Nc1ncc(Cl)c(n1)N2)C(=O)C1CCN(c2ncccn2)CC1 [Example B338, N-{[6-Chloro-2,4,8,18,22-pentaazatetracyclo[14.3.1.1(3,7).1(9,13)]docosa-1(20),3(22),4,6,9(21),10,12,16,18-nonaen-12-yl]methyl}-N-methyl-1-pyrimidin-2-ylpiperidine-4-carboxamide tris(trifluoroacetate)]	70 nM	130 nM	> 200 nM	> 200 nM	21%
CN(Cc1ccc2cc1CCc1cncc(c1)Nc1ncc(Cl)c(n1)N2)CC1CCNCC1 [Example B339, 1-[6-Chloro-2,4,8,18,22-pentaazatetracyclo[14.3.1.1(3,7).1(9,13)]docosa-1(20),3(22),4,6,9(21),10,12,16,18-nonaen-12-yl]-N-methyl-N-(piperidin-4-ylmethyl)methanamine Tetrahydrochloride]	172 nM	> 400 nM	> 400 nM	> 400 nM	41%
Cc1oncc1S(=O)(=O)N1CCC(CN(C)Cc2ccc3cc2CCc2cncc(c2)Nc2ncc(Cl)c(n2)N3)CC1 [Example B342, 1-[6-Chloro-2,4,8,18,22-pentaazatetracyclo[14.3.1.1(3,7).1(9,13)]docosa-1(20),3(22),4,6,9(21),10,12,16,18-nonaen-12-yl]-N-methyl-N-({1-[(5-methylisoxazol-4-yl)sulfonyl]piperidin-4-yl}methyl)methanamine tris(trifluoroacetate)]	7.7 nM	60 nM	> 400 nM	226 nM	37%
CN(Cc1ccc2cc1CCc1cncc(c1)Nc1ncc(Cl)c(n1)N2)CC1CCN(C(=O)c2ccno2)CC1 [Example B345, 1-[6-Chloro-2,4,8,18,22-pentaazatetracyclo[14.3.1.1(3,7).1(9,13)]docosa-1(20),3(22),4,6,9(21),10,12,16,18-nonaen-12-yl]-N-{[1-(isoxazol-5-ylcarbonyl)piperidin-4-yl]methyl}-N-methylmethanamine tris(trifluoroacetate)]	17 nM	179 nM	> 400 nM	98 nM	40%
CC(=O)N1CCC(CN(C)Cc2ccc3cc2CCc2cncc(c2)Nc2ncc(Cl)c(n2)N3)CC1 [Example B346, 1-(1-Acetylpiperidin-4-yl)-N-{[6-chloro-2,4,8,18,22-pentaazatetracyclo[14.3.1.1(3,7).1(9,13)]docosa-1(20),3(22),4,6,9(21),10,12,16,18-nonaen-12-yl]methyl}-N-methylmethanamine tris(trifluoroacetate)]	13 nM	91 nM	> 400 nM	> 400 nM	38%
CN(Cc1ccc2cc1CCc1cncc(c1)Nc1ncc(Cl)c(n1)N2)CC1CCN(C(=O)Nc2cccnc2)CC1 [Example B348, 4-{[{[6-Chloro-2,4,8,18,22-pentaazatetracyclo[14.3.1.1(3,7).1(9,13)]docosa-1(20),3(22),4,6,9(21),10,12,16,18-nonaen-12-yl]methyl}(methyl)amino]methyl}-N-pyridin-3-ylpiperidine-1-carboxamide tetrakis(trifluoroacetate)]	3.4 nM	45 nM	> 400 nM	> 400 nM	47%

Second part, the compound after the results:

IC50 [1]	IC50 [2]	IC50 [3]	IC50 (TYK2)	ALK % of inhibition at a concentration of 500 nM or 1 mM [4]	Structure (SMILES)
1.2 nM	41 nM	> 400 nM	180 nM	24%	CN(Cc1ccc2cc1CCc1cncc(c1)Nc1ncc(Cl)c(n1)N2)CC1CCN(S(=O)(=O)c2ccccc2C#N)CC1 [Example B340, 2-[(4-{[{[6-Chloro-2,4,8,18,22-pentaazatetracyclo[14.3.1.1(3,7).1(9,13)]docosa-1(20),3(22),4,6,9(21),10,12,16,18-nonaen-12-yl]methyl}(methyl)amino]methyl}piperidin-1-yl)sulfonyl]benzonitrile tris(trifluoroacetate)]
13 nM	146 nM	> 400 nM	> 400 nM	27%	CN(Cc1ccc2cc1CCc1cncc(c1)Nc1ncc(Cl)c(n1)N2)CC1CCN(S(=O)(=O)c2ccccc2)CC1 [Example B341, 1-[6-Chloro-2,4,8,18,22-pentaazatetracyclo[14.3.1.1(3,7).1(9,13)]docosa-1(20),3(22),4,6,9(21),10,12,16,18-nonaen-12-yl]-N-methyl-N-{[1-(phenylsulfonyl)piperidin-4-yl]methyl}methanamine tris(trifluoroacetate)]
3.8 nM	130 nM	> 400 nM	180 nM	42%	Cc1nc(S(=O)(=O)N2CCC(CN(C)Cc3ccc4cc3CCc3cncc(c3)Nc3ncc(Cl)c(n3)N4)CC2)cn1C [Example B343, 1-[6-Chloro-2,4,8,18,22-pentaazatetracyclo[14.3.1.1(3,7).1(9,13)]docosa-1(20),3(22),4,6,9(21),10,12,16,18-nonaen-12-yl]-N-({1-[(1,2-dimethyl-1H-imidazol-4-yl)sulfonyl]piperidin-4-yl}methyl)-N-methylmethanamine tris(trifluoroacetate)]
14 nM	90 nM	> 400 nM	276 nM	43%	Cc1cc(C(=O)N2CCC(CN(C)Cc3ccc4cc3CCc3cncc(c3)Nc3ncc(Cl)c(n3)N4)CC2)no1 [Example B344, 1-[6-Chloro-2,4,8,18,22-pentaazatetracyclo[14.3.1.1(3,7).1(9,13)]docosa-1(20),3(22),4,6,9(21),10,12,16,18-nonaen-12-yl]-N-methyl-N-({1-[(5-methylisoxazol-3-yl)carbonyl]piperidin-4-yl}methyl)methanamine tris(trifluoroacetate)]
58 nM	371 nM	> 400 nM	> 400 nM	45%	Cc1ncoc1C(=O)N1CCC(CN(C)Cc2ccc3cc2CCc2cncc(c2)Nc2ncc(Cl)c(n2)N3)CC1 [Example B347, 1-[6-Chloro-2,4,8,18,22-pentaazatetracyclo[14.3.1.1(3,7).1(9,13)]docosa-1(20),3(22),4,6,9(21),10,12,16,18-nonaen-12-yl]-N-methyl-N-({1-[(4-methyl-1,3-oxazol-5-yl)carbonyl]piperidin-4-yl}methyl)methanamine tris(trifluoroacetate)]
11 nM	150 nM	371 nM	300 nM	61%	Cc1occc1NC(=O)N1CCC(CN(C)Cc2ccc3cc2CCc2cncc(c2)Nc2ncc(Cl)c(n2)N3)CC1 [Example B349, 4-{[{[6-Chloro-2,4,8,18,22-pentaazatetracyclo[14.3.1.1(3,7).1(9,13)]docosa-1(20),3(22),4,6,9(21),10,12,16,18-nonaen-12-yl]methyl}(methyl)amino]methyl}-N-(2-methyl-3-furyl)piperidine-1-carboxamide tris(trifluoroacetate)]
90 nM	66 nM	> 400 nM	244 nM	58%	Clc1cnc2nc1Nc1ccc(-c3cn[nH]c3)c(c1)CCc1cncc(c1)N2 [Example B350, 6-Chloro-12-(1H-pyrazol-4-yl)-2,4,8,18,22-pentaazatetracyclo[14.3.1.1(3,7).1(9,13)]docosa-1(20),3(22),4,6,9(21),10,12,16,18-nonaene tris(trifluoroacetate)]

— patent US8871753B2, “Macrocyclic compounds and their use as kinase inhibitors” (Incyte Corporation, priority 2008, dated 2014)
